Measurements: PMC12501029, “Discovery of a CNS active GSK3 degrader using orthogonally reactive linker screening” (Nature Communications, 2025)

How the values were obtained:
[1] = tested on: GSK3, total β-catenin, phospho-CRMP2; test: GSK3 and GSK3 substrates immunoblot in differentiated SH-SY5Y cells, 24 h; assay type: cell-based, human
Protocol: HEK293 cells purchased from ATCC and MEF cells were kindly gifted by MRC PPU reagents and services at the University of Dundee. HEK293 and MEF cells were maintained in DMEM (high glucose, GlutaMAX; Gibco) containing 10% foetal bovine serum (FBS; Thermo Fisher), 100U ML-1 penicillin-streptomycin (Thermo Fisher). HAP1 wild type and HAP1 Cereblon Knock-out cell line (CRBN-KO, HZGHC003752c001, Horizon) was a gift from the Ciulli Lab. HAP1 cells were cultured in IMDM (Gibco) with the same additives described as above. SH-SY5Y human neuroblastoma cells (ATCC, CRL-2266) maintained in DMEM (high glucose, Gibco) supplemented with same additives as above. For differentiation, 5 × 10^5 cells were seeded into each well of 6 well plates and differentiated into a more neuronal-like phenotype by treating for 5 days with 10 µM retinoic acid (F9665, Sigma), changing the media every day for the first 3 days[39],[40]. […]
HEK293, HAP1, HAP1 CRBN KO and SH-SY5Y cells were plated in either 6 cm plates or 6-well plates at varying densities (0.5–0.7 × 10^6 cells per plate or wells), and MEF cells were plated in 10 cm plates (1–1.2 × 10^6 cells per plate) depending on experimental set up in respective culturing condition as described above. […] Following clearance of lysates, protein concentrations were determined by the BCA assay (Fisher Scientific, 23225) or Bradford assay (Bio-rad). […]

[2] = molecular target: T1, GSK3β-HiBiT (GSK3β-HiBiT KI HEK293 cells) (Homo sapiens, UniProt P49841); test: Serum shift assay (10% FBS or 10% mouse serum); assay type: cell-based
T1 construct: we generated endogenously tagged GSK3β-HiBiT knock-in (KI) HEK293 cells; endogenous in cells; host or cells: GSK3β-HiBiT knock-in HEK293 cells (CRISPR/Cas9, single-cell clone)
T1 sequence (P49841 whole entry): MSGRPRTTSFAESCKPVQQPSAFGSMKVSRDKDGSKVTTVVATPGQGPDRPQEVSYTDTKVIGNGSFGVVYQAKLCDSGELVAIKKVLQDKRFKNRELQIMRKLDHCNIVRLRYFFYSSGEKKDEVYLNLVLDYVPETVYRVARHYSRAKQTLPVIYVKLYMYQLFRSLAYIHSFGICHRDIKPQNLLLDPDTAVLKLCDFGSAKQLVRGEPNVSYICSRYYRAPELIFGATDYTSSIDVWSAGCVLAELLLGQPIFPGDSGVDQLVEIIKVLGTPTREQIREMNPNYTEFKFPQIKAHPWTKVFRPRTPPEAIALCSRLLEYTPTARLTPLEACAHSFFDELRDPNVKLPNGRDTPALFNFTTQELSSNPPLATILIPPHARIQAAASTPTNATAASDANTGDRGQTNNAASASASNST
Protocol: Test compounds were serially diluted into white bottom opaque tissue culture grade 384-well assay plates (Perkin Elmer) using Echo500 (Labcyte) and GSK3β-HiBiT KI HEK293 cells were seeded at a density of 5 × 10^3 cells per well either in 50 µL of DMEM supplemented with regular 10% FBS (Gibco) or instead 10% mouse serum (Balb/C) and plates were incubated for compound treatment in incubators at 37 °C. After 24 h of compound treatment, HiBiT lytic reagents (Promega) prepared according to manufacturers’ instructions were added into plates and luminescence signal was measured on a PheraStar plate reader (BMG) and data analysed using GraphPad Prism (v10.1.2) as previously described above.

With `Cn1nc(N2CCC(=O)NC2=O)c2ccc(CN3CCN(Cc4ccc(-c5cn(-c6ccc(-c7cn8nccc(C(=O)Nc9cnccc9N9CCOCC9)c8n7)cc6)nn5)nc4)CC3)cc21` [compound 24] the phospho-CRMP2 level ([1]; concurrent with GSK3 degradation) was “concurrent reduction in phospho-CRMP2”, the “dose at which β-catenin stabilisation most clear” value ([1]; highest tested dose) was 100 nM and the DC50 ([2]; 10% foetal bovine serum (FBS), 24 h) was 1.3 nM. For the same compound, the DC50 ([2]; 10% mouse serum (MS), 24 h) was 10.4 nM, the Dmax ([2]; HEK293, 10% foetal bovine serum (FBS), 24 h) was 89% and the “predicted shift in whole blood” value ([2]; extrapolated from 10% mouse serum shift) was ~ 80 ×. The “free fraction in mouse plasma from serum shift” value ([2]; extrapolated from serum shift assay) was ~ 1.2%.
